Laboratory results published in US20090118332A1, “Therapeutic Agents - 551” (AstraZeneca AB, priority 2006, published 2009).

Target: T1, human Fatty Acid Synthase (Homo sapiens, UniProt P49327)
T1 construct: made in house
Experiment: Human FAS enzyme assay (decrease in NADPH fluorescence)
Type: biochemical
Details: % inhibition at a concentration of 100 μmolar
Outline: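 In-house human FAS was preincubated with compound and NADPH for 15 min at room temperature in 0.1 M Tris pH 7.5 with EDTA, glutathione and BSA. Malonyl CoA and acetyl CoA (500 μM and 150 μM in the added mix) were then added for 60 min. IC50 came from time-zero-subtracted NADPH fluorescence (340/460 nm).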

T1 sequence (P49327 whole entry): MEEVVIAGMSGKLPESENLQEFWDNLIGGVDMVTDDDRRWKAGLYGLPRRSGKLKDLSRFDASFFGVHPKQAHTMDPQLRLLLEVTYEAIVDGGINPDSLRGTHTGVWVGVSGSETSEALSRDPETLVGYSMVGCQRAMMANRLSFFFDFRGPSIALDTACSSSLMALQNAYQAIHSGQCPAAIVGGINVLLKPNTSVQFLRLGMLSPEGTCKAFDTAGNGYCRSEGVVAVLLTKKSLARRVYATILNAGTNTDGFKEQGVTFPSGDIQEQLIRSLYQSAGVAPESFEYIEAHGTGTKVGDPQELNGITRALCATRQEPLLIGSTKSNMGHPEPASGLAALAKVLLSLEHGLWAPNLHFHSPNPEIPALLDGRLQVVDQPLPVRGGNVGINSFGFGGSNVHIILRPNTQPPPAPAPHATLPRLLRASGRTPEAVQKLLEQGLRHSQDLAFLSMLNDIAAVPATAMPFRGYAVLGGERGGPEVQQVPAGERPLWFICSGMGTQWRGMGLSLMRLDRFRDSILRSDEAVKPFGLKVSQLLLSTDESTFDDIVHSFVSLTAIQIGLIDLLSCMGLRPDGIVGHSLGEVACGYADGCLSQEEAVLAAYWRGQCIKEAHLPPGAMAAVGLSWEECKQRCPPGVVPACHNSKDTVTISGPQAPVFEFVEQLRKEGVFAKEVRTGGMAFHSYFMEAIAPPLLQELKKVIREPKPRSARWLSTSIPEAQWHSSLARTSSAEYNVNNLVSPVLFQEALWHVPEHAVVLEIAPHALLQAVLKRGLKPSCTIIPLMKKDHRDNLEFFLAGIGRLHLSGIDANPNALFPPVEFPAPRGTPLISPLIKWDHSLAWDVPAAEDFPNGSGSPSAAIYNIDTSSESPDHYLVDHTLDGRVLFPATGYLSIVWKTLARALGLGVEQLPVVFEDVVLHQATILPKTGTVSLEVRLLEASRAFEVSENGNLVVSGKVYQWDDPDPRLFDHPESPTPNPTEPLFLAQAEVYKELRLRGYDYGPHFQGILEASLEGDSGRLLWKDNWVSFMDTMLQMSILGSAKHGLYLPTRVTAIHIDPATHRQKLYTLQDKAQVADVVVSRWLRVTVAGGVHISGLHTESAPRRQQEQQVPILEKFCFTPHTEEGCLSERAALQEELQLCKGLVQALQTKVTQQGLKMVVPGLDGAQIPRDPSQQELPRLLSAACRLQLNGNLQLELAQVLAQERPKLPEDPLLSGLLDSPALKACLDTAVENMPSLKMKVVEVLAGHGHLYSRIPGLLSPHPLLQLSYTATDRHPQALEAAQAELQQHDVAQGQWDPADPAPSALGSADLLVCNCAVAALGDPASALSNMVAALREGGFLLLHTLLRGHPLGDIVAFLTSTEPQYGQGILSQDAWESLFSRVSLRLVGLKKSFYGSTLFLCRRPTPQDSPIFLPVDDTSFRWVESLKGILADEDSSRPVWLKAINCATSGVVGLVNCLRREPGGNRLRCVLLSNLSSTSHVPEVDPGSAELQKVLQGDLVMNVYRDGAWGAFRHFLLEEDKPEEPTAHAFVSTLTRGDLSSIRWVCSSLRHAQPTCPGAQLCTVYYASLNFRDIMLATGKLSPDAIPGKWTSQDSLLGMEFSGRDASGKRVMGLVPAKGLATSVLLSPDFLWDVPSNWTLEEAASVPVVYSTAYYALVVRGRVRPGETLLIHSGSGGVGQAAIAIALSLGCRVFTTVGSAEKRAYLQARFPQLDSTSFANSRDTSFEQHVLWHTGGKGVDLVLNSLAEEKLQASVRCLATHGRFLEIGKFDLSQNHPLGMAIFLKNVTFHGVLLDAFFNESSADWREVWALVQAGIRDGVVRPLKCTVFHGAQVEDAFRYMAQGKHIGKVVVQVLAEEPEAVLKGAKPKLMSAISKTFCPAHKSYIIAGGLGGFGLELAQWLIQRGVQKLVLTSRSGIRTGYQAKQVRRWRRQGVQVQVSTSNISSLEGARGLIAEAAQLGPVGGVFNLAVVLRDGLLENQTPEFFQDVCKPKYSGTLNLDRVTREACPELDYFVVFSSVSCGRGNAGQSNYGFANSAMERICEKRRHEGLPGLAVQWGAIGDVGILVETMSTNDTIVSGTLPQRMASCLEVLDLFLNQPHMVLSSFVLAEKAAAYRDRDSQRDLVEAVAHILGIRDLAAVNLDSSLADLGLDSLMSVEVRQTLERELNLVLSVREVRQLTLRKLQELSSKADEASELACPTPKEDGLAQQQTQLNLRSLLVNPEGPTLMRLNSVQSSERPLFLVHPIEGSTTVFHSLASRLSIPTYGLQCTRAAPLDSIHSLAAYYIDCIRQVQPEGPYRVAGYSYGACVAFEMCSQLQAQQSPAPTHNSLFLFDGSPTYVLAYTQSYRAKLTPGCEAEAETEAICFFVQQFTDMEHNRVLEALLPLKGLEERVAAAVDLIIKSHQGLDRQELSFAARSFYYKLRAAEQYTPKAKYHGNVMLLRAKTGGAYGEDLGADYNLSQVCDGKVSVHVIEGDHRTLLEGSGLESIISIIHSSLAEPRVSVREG

**Q.** Which inhibition at 100 µM does the source give for `Cc1ccc(C(=O)N2CCC(c3ccc(C#N)cc3)CC2)cc1NC(=O)N[C@@H](C)c1ccccc1` [Example 105, 1-[5-[4-(4-cyanophenyl)piperidine-1-carbonyl]-2-methyl-phenyl]-3-[(1S)-1-phenylethyl]urea] here?
**A.** The inhibition at 100 µM was 92.7%.

**Q.** `Cc1ccc(C(=O)N2CCC(c3ccc(C#N)cc3)CC2)cc1NC(=O)N[C@H](C)c1ccccc1` [Example 106, 1-[5-[4-(4-cyanophenyl)piperidine-1-carbonyl]-2-methyl-phenyl]-3-[(1R)-1-phenylethyl]urea] was tested. Which inhibition at 100 µM did it give?
**A.** Its inhibition at 100 µM is 90.3%.

**Q.** `Cc1ccc(C(=O)N2CCC(c3ccc(C#N)cc3)CC2)cc1NC(=O)NC1CCC(O)CC1` (stereo not shown) [Example 107, 1-[5-[4-(4-cyanophenyl)piperidine-1-carbonyl]-2-methyl-phenyl]-3-(4-hydroxycyclohexyl)urea] was tested. Which inhibition at 100 µM did it give?
**A.** Its inhibition at 100 µM is 97.7%.

**Q.** Which inhibition at 100 µM does the source give for `Cc1ccc(C(=O)N2CCC(c3ccc(C#N)cc3)CC2)cc1NC(=O)NCc1cccc(C#N)c1` [Example 108, 3-[(3-cyanophenyl)methyl]-1-[5-[4-(4-cyanophenyl)piperidine-1-carbonyl]-2-methyl-phenyl]urea] here?
**A.** The inhibition at 100 µM was 91.8%.

**Q.** Which inhibition at 100 µM does the source give for `Cc1ccc(C(=O)N2CCC(c3ccc(C#N)cc3)CC2)cc1NC(=O)NCCNS(C)(=O)=O` [Example 109, 1-[5-[4-(4-cyanophenyl)piperidine-1-carbonyl]-2-methyl-phenyl]-3-(2-methanesulfonamidoethyl)urea] here?
**A.** The inhibition at 100 µM was 98.3%.

**Q.** `CCS(=O)(=O)NCCNC(=O)Nc1cc(C(=O)N2CCC(c3ccc(C#N)cc3)CC2)ccc1C` [Example 110, 3-[5-[4-(4-cyanophenyl)piperidine-1-carbonyl]-2-methyl-phenyl]-1-[2-(ethylsulfonylamino)ethyl]urea] was tested. Which inhibition at 100 µM did it give?
**A.** Its inhibition at 100 µM is 94.2%.

**Q.** `CCC(=O)NCCNC(=O)Nc1cc(C(=O)N2CCC(c3ccc(C#N)cc3)CC2)ccc1C` [Example 111, N-[2-[[5-[4-(4-cyanophenyl)piperidine-1-carbonyl]-2-methyl-phenyl]carbamoylamino]ethyl]propanamide] was tested. Which inhibition at 100 µM did it give?
**A.** Its inhibition at 100 µM is 95.6%.

**Q.** Which inhibition at 100 µM does the source give for `Cc1ccc(C(=O)N2CCC(c3ccc(C#N)cc3)CC2)cc1NC(=O)NCCNC(=O)C(C)C` [Example 112, N-[2-[[5-[4-(4-cyanophenyl)piperidine-1-carbonyl]-2-methyl-phenyl]carbamoylamino]ethyl]-2-methyl-propanamide] here?
**A.** The inhibition at 100 µM was 94.3%.

**Q.** With `CC(=O)OCC(=O)NCCNC(=O)Nc1cc(C(=O)N2CCC(c3ccc(C#N)cc3)CC2)ccc1C` [Example 113, 2-[[5-[4-(4-cyanophenyl)piperidine-1-carbonyl]-2-methyl-phenyl]carbamoylamino]ethylcarbamoylmethyl acetate] as the compound, how does the inhibition at 100 µM read?
**A.** The inhibition at 100 µM was 92.7%.

**Q.** How did the inhibition at 100 µM turn out when `Cc1ccc(C(=O)N2CCC(c3ccc(C#N)cc3)CC2)cc1NC(=O)NCCNC(=O)CO` [Example 114, N-[2-[[5-[4-(4-cyanophenyl)piperidine-1-carbonyl]-2-methyl-phenyl]carbamoylamino]ethyl]-2-hydroxy-acetamide] was run?
**A.** Its inhibition at 100 µM is 89.4%.

**Q.** With `Cc1ccc(C(=O)N2CCC(c3ccc(C#N)cc3)CC2)cc1NC(=O)NCCN(C)C(=O)OC(C)(C)C` [Example 115, tert-butyl N-[2-[[5-[4-(4-cyanophenyl)piperidine-1-carbonyl]-2-methyl-phenyl]carbamoylamino]ethyl]-N-methyl-carbamate] as the compound, how does the inhibition at 100 µM read?
**A.** The inhibition at 100 µM was 92.9%.

**Q.** `CNCCNC(=O)Nc1cc(C(=O)N2CCC(c3ccc(C#N)cc3)CC2)ccc1C` [Example 116, 1-[5-[4-(4-cyanophenyl)piperidine-1-carbonyl]-2-methyl-phenyl]-3-(2-methylaminoethyl)urea] was tested. Which inhibition at 100 µM did it give?
**A.** The inhibition at 100 µM was 86.2%.

**Q.** `Cc1ccc(C(=O)N2CCC(c3ccc(C#N)cc3)CC2)cc1NC(=O)NCCNC(=O)c1cccs1` [Example 117, N-[2-[[5-[4-(4-cyanophenyl)piperidine-1-carbonyl]-2-methyl-phenyl]carbamoylamino]ethyl]thiophene-2-carboxamide] was tested. Which inhibition at 100 µM did it give?
**A.** Its inhibition at 100 µM is 84.5%.

**Q.** For `Cc1ccc(C(=O)N2CCC(c3ccc(C#N)cc3)CC2)cc1NC(=O)NCCNC(=O)c1cccn1C` [Example 118, N-[2-[[5-[4-(4-cyanophenyl)piperidine-1-carbonyl]-2-methyl-phenyl]carbamoylamino]ethyl]-1-methyl-pyrrole-2-carboxamide], which inhibition at 100 µM is on record?
**A.** Its inhibition at 100 µM is 96.2%.

**Q.** `Cc1ccc(C(=O)N2CCC(c3ccc(C#N)cc3)CC2)cc1NC(=O)NCCNC(=O)c1cnoc1C` [Example 119, N-[2-[[5-[4-(4-cyanophenyl)piperidine-1-carbonyl]-2-methyl-phenyl]carbamoylamino]ethyl]-5-methyl-1,2-oxazole-4-carboxamide] was tested. Which inhibition at 100 µM did it give?
**A.** The inhibition at 100 µM was 89.2%.

**Q.** For `CC(=O)N(C)CCNC(=O)Nc1cc(C(=O)N2CCC(c3ccc(C#N)cc3)CC2)ccc1C` [Example 120, N-[2-[[5-[4-(4-cyanophenyl)piperidine-1-carbonyl]-2-methyl-phenyl]carbamoylamino]ethyl]-N-methyl-acetamide], which inhibition at 100 µM is on record?
**A.** Its inhibition at 100 µM is 68.3%.

**Q.** `Cc1ccc(C(=O)N2CCC(c3ccc(C#N)cc3)CC2)cc1NC(=O)NCCN(C)S(C)(=O)=O` [Example 121, 1-[5-[4-(4-cyanophenyl)piperidine-1-carbonyl]-2-methyl-phenyl]-3-[2-(methyl-methylsulfonyl-amino)ethyl]urea] was tested. Which inhibition at 100 µM did it give?
**A.** The inhibition at 100 µM was 86%.

**Q.** How did the inhibition at 100 µM turn out when `Cc1ccc(C(=O)N2CCC(c3ccc(C#N)cc3)CC2)cc1NC(=O)NCCNS(=O)(=O)C(C)C` [Example 122, 1-[5-[4-(4-cyanophenyl)piperidine-1-carbonyl]-2-methyl-phenyl]-3-[2-(propan-2-ylsulfonylamino)ethyl]urea] was run?
**A.** The inhibition at 100 µM was 96.1%.

**Q.** With `Cc1ccc(C(=O)N2CCC(c3ccc(C(=O)N(C)C)cc3)CC2)cc1NC(=O)NCc1ccccc1` [Example 123, 4-[1-[3-(benzylcarbamoylamino)-4-methyl-benzoyl]-4-piperidyl]-N,N-dimethyl-benzamide] as the compound, how does the inhibition at 100 µM read?
**A.** Its inhibition at 100 µM is 79.7%.

**Q.** Which inhibition at 100 µM does the source give for `Cc1ccc(C(=O)N2CCC(c3ccc(C(=O)N(C)C)cc3)CC2)cc1NC(=O)NC(C)C` [Example 124, N,N-dimethyl-4-[1-[4-methyl-3-(propan-2-ylcarbamoylamino)benzoyl]-4-piperidyl]benzamide] here?
**A.** The inhibition at 100 µM was 78%.

**Q.** For `Cc1ccc(C(=O)N2CCC(c3ccc(C#N)cc3)CC2)cc1NC(=O)NCCC(=O)O` [Example 125, 3-[[5-[4-(4-cyanophenyl)piperidine-1-carbonyl]-2-methyl-phenyl]carbamoylamino]propanoic acid], which inhibition at 100 µM is on record?
**A.** Its inhibition at 100 µM is 91.7%.

**Q.** For `Cc1ccc(C(=O)N2CCC(c3ccc(C#N)cc3)CC2)cc1NC(=O)NCCC(N)=O` [Example 126, 3-[[5-[4-(4-cyanophenyl)piperidine-1-carbonyl]-2-methyl-phenyl]carbamoylamino]propanamide], which inhibition at 100 µM is on record?
**A.** The inhibition at 100 µM was 87.4%.

**Q.** How did the inhibition at 100 µM turn out when `Cc1ccc(C(=O)N2CCC(c3ccc(C#N)cc3)CC2)cc1NC(=O)NCCC(=O)N1CCOCC1` [Example 127, 1-[5-[4-(4-cyanophenyl)piperidine-1-carbonyl]-2-methyl-phenyl]-3-(3-morpholin-4-yl-3-oxo-propyl)urea] was run?
**A.** Its inhibition at 100 µM is 93%.

**Q.** For `COCCNC(=O)CCNC(=O)Nc1cc(C(=O)N2CCC(c3ccc(C#N)cc3)CC2)ccc1C` [Example 128, 3-[[5-[4-(4-cyanophenyl)piperidine-1-carbonyl]-2-methyl-phenyl]carbamoylamino]-N-(2-methoxyethyl)propanamide], which inhibition at 100 µM is on record?
**A.** Its inhibition at 100 µM is 87.5%.

**Q.** How did the inhibition at 100 µM turn out when `Cc1ccc(C(=O)N2CCC(c3ccc(C#N)cc3)CC2)cc1NC(=O)NCCC(=O)NC(C)C` [Example 129, 3-[[5-[4-(4-cyanophenyl)piperidine-1-carbonyl]-2-methyl-phenyl]carbamoylamino]-N-propan-2-yl-propanamide] was run?
**A.** Its inhibition at 100 µM is 99.1%.

**Q.** For `Cc1ccc(C(=O)N2CCC(c3ccc(C#N)cc3)CC2)cc1NC(=O)NCCC(=O)N(C)C` [Example 130, 3-[[5-[4-(4-cyanophenyl)piperidine-1-carbonyl]-2-methyl-phenyl]carbamoylamino]-N,N-dimethyl-propanamide], which inhibition at 100 µM is on record?
**A.** Its inhibition at 100 µM is 90.5%.

**Q.** `Cc1ccc(C(=O)N2CCC(c3ccc(C#N)cc3)CC2)cc1NC(=O)NCCCN1CCCC1=O` [Example 131, 1-[5-[4-(4-cyanophenyl)piperidine-1-carbonyl]-2-methyl-phenyl]-3-[3-(2-oxopyrrolidin-1-yl)propyl]urea] was tested. Which inhibition at 100 µM did it give?
**A.** Its inhibition at 100 µM is 89.8%.

**Q.** With `CCOC(=O)N1CCC(NC(=O)Nc2cc(C(=O)N3CCC(c4ccc(C#N)cc4)CC3)ccc2C)CC1` [Example 132, ethyl 4-[[5-[4-(4-cyanophenyl)piperidine-1-carbonyl]-2-methyl-phenyl]carbamoylamino]piperidine-1-carboxylate] as the compound, how does the inhibition at 100 µM read?
**A.** Its inhibition at 100 µM is 89.5%.

**Q.** Which inhibition at 100 µM does the source give for `Cc1ccc(C(=O)N2CCC(c3ccc(C#N)cc3)CC2)cc1NC(=O)NC1CCCCNC1=O` (stereo not shown) [Example 133, 1-[5-[4-(4-cyanophenyl)piperidine-1-carbonyl]-2-methyl-phenyl]-3-(2-oxoazepan-3-yl)urea] here?
**A.** Its inhibition at 100 µM is 81.2%.

**Q.** For `Cc1ccc(C(=O)N2CCC(c3ccc(C#N)cc3)CC2)cc1NC(=O)NC1CCCC[C@@H]1C(N)=O` (stereo partly drawn) [Example 134, (1S)-2-[[5-[4-(4-cyanophenyl)piperidine-1-carbonyl]-2-methyl-phenyl]carbamoylamino]cyclohexane-1-carboxamide], which inhibition at 100 µM is on record?
**A.** Its inhibition at 100 µM is 84.6%.

**Q.** `Cc1ccc(C(=O)N2CCC(c3ccc(C#N)cc3)CC2)cc1NC(=O)NCCN1CCNC1=O` [Example 135, 1-[5-[4-(4-cyanophenyl)piperidine-1-carbonyl]-2-methyl-phenyl]-3-[2-(2-oxoimidazolidin-1-yl)ethyl]urea] was tested. Which inhibition at 100 µM did it give?
**A.** Its inhibition at 100 µM is 81.1%.

**Q.** With `Cc1ccc(C(=O)N2CCC(c3ccc(C#N)cc3)CC2)cc1NC(=O)NCc1cc(=O)[nH]o1` [Example 136, 1-[5-[4-(4-cyanophenyl)piperidine-1-carbonyl]-2-methyl-phenyl]-3-[(3-oxo-1,2-oxazol-5-yl)methyl]urea] as the compound, how does the inhibition at 100 µM read?
**A.** The inhibition at 100 µM was 80.9%.

**Q.** With `Cc1ccc(C(=O)N2CCC(c3ccc(C#N)cc3)CC2)cc1NC(=O)NCCN1CCCC1` [Example 137, 1-[5-[4-(4-cyanophenyl)piperidine-1-carbonyl]-2-methyl-phenyl]-3-(2-pyrrolidin-1-ylethyl)urea] as the compound, how does the inhibition at 100 µM read?
**A.** The inhibition at 100 µM was 87.9%.

**Q.** How did the inhibition at 100 µM turn out when `Cc1ccc(C(=O)N2CCC(c3ccc(C#N)cc3)CC2)cc1NC(=O)NCCCN(C)C` [Example 138, 1-[5-[4-(4-cyanophenyl)piperidine-1-carbonyl]-2-methyl-phenyl]-3-(3-dimethylaminopropyl)urea] was run?
**A.** The inhibition at 100 µM was 83.7%.
